Patent publication US12344584B2, “KCNQ potentiators” (Eli Lilly and Company, priority 2019, dated 2025)
Read-outs that look alike come from different tables or passages of the source.

Assays:
[1] = tested on: motor neurons derived from ALS patient iPSC line with pathogenic mutation in TARDBP; assay: Optopatch excitability assay in motor neurons derived from ALS patient iPSC line (TARDBP mutation); type: cell-based, human; conditions: for EC50: Homo sapiens, iPSC, TARDBP line, blue LED 5.1 mW/cm^2, mean, read-out: EC50, inhibition of excitability (action potential frequency)
Description: (§1) Optopatch Excitability Assay for Example 1 in Motor Neurons Derived From ALS Patient iPSC Lines
(§2) Altered excitability of cortical neurons and lower motor neuron is an important factor in the pathophysiology of ALS (See, for example, K. Kanai, et. al., J Neurol Neurosurg Psychiatry, 83, 734-738 (2012); P. Menon, et. al., Eur Neurol., 24, 816-824 (2017)). All-optical electrophysiology (“Optopatch”) was used to evaluate excitability in cultured motor neurons derived from iPSC lines from two ALS patients with different pathogenic mutations.
(§3) Cell Culture: The two iPSC lines are derived from one patient with a pathogenic mutation in TARDBP and one patient with a pathogenic repeat expansion mutation in C9orf72, respectively. Motor neurons are generated from these lines by a 2D differentiation method adapted from the dual SMAD inhibition neuronal patterning protocol (See S. M. Chambers, et. al., Nat Biotechnol., 27, 275-280 (2009)) by inclusion of motor neuron morphogens. Differentiation is verified by visual inspection, karyotyping and staining for beta-III-tubulin and the nuclear motor neuron marker ISL1. Neurons are cultured on a monolayer of mouse glia in mTeSR (Stem Cell Technologies), supplemented with 10 ng/mL BDNF. Forty-eight hours prior to imaging, 100 nM trans-retinal was added to the medium.
(§4) Transduction with Optopatch vectors: At 15 days in vitro, cultured motor neurons are transduced with a lentiviral vector to drive the co-expression of the actuator CheRiff-mOrange2 and the voltage indicator QuasAr3-Citrine (for details see D. R. Hochbaum, et. al., Nat. Methods, 11, 825-833 (2014)). Forty-eight hours prior to imaging, 100 nM trans-retinal was added to the medium.
Solutions: Recordings are performed in Brainphys™ imaging buffer with 3 mM potassium. The gap junction blocker 2-aminoethoxydiphenyl borate (50 μM) is added to eliminate electrical coupling between cells, and NBQX (10 μM), gabazine (20 μM), and AP5 (25 μM) were used to block synaptic transmission.
Optopatch Recordings: Five days after transduction, Optopatch imaging is performed on a custom, ultra-widefield fluorescence microscope at RT. Motor neurons are illuminated with red laser excitation (200 W/cm^2; 635 nm) to monitor changes in QuasAr fluorescence and blue LED excitation (0-127 mW/cm^2, 470 nm) to depolarize the cell membrane with CheRiff. A custom blue light stimulus protocol is used consisting of: i) 2 sec of red illumination only to monitor spontaneous activity, ii) 5×500 msec steps of increasing blue light intensity and iii) 2×2 sec linearly increasing blue light ramps, each with a different maximum blue intensity. Optopatch data are recorded using a Hamamatsu ORCA-Flash 4.0 sCMOS camera with a 1 kHz frame rate. The field of view size is 4 mm×0.5 mm. Custom control software written in MATLAB is used to control illumination protocols and record all movies. To examine acute effects of Kv7.2/7.3 potentiators, neurons are incubated with test compound for 15 min prior to imaging.
(§5) Data Analysis: Image segmentation analysis is performed using temporal Principle Component Analysis and spatial-temporal Independent Component Analysis to isolate individual neurons. A spike-finding algorithm is used to find action potentials, and data are analyzed for compound effects on mean firing rate, adaptation, rheobase and action potential waveform shape by comparing to vehicle controls (for detail, see C. A. Werley, et. al., Curr. Protoc. Pharmacol., 78, 11.20.1-11.20.24. (2017)).
Subjected to the protocol described above, the primary effect of the Example 1 is on the action potential firing rate in response to low intensity blue light illumination.
Fitting a 4-parameter logistic equation to the data may be used to determine the potency (EC50) of the effect of Example 1 on action potential frequency. Results are shown in Table 1 for two separate differentiation efforts each for the lines derived from the patients carrying the TARDBP and C9orf72 mutations.

[2] = tested on: motor neurons derived from ALS patient iPSC line with pathogenic repeat expansion mutation in C9orf72; assay: Optopatch excitability assay in motor neurons derived from ALS patient iPSC line (C9orf72 repeat expansion); type: cell-based; conditions: Homo sapiens, read-out: EC50, inhibition of excitability (action potential frequency)
Description: as §1, §2, §3, §4
Solutions: Recordings are performed in Brainphys™ imaging buffer with 3 mM potassium. […]
Optopatch Recordings: Five days after transduction, Optopatch imaging is performed on a custom, ultra-widefield fluorescence microscope at RT. Motor neurons are illuminated with red laser excitation (200 W/cm^2; 635 nm) to monitor changes in QuasAr fluorescence and blue LED excitation (0-127 mW/cm^2, 470 nm) to depolarize the cell membrane with CheRiff. […] Optopatch data are recorded using a Hamamatsu ORCA-Flash 4.0 sCMOS camera with a 1 kHz frame rate. […]
as §5, with “(2017)). […]” for “(2017)).”

CC(C)(C)[C@H](O)CNC(=O)NCc1ccnc(OCC(F)(F)F)c1 [Example 1, 1-[(2S)-2-hydroxy-3,3-dimethyl-butyl]-3-[[2-(2,2,2-trifluoroethoxy)-4-pyridyl]methyl]urea] was tested. Which EC50 ([1]; Diff 1) did it give?
Its EC50 is 150 nM.

What about the EC50 ([1]; Diff 2) of the same molecule?
The EC50 was 150 nM.

What about the “effect on action potential frequency” value ([1]; blue LED illumination intensity 5.1 mW/cm^2, text does not distinguish the two lines) of the same molecule?
Its value is “decreased action potential frequency in a concentration-dependent manner”.

And the “observed effects compared with flupirtine” value ([1]; both patient lines, vs known Kv7.2/7.3 potentiator flupirtine)?
Its value is “qualitatively similar but more potent”.

And the EC50 ([2]; Diff 1, blue LED 5.1 mW/cm^2, mean)?
Its EC50 is 170 nM.

And the EC50 ([2]; Diff 2, blue LED 5.1 mW/cm^2, mean)?
The EC50 was 200 nM.
